Test results reported in US20120329860A1, “Uses of Beta-Nicotinamide Adenine Dinucleotide” (MEDICAL COLLEGE OF GEORGIA INSTITUTE, INC, priority 2010, published 2012).
Entries after “also recorded” stand apart in the source; their conditions may differ.

Columns and labels:
Rac1 = test: G-LISA Rac activation assay in HPAEC; format: cell-based, human; conditions: 50 mM β-NAD, time course; basal by 30 min
Experimental: (§1) Protein extracts were separated by SDS-PAGE, transferred to nitrocellulose membrane and probed with specific antibodies. Horseradish peroxidase-conjugated goat anti-rabbit IgG antibody (Santa Cruz Biotechnology, Santa Cruz, Calif.) was used as the secondary antibody, and immunoreactive proteins were detected using enhanced chemiluminescence detection kit (ECL) according to the manufacturer's protocol (Amersham, Little Chalfont, UK). For quantification, immunoblot data were analyzed using NIH Image 1.63 software. Active Rac1 was determined using G-LISA Rac activation assay according to the manufacturer's recommendations (Cytoskeleton Inc., Denver, Colo.).

HPAEC monolayers = test: Transendothelial electrical resistance (TER) by ECIS in HPAEC monolayers; format: cell-based, human
Experimental: Human pulmonary artery endothial cells (HPAEC) and EBM-2 complete medium were purchased from Lonza (Allendale, N.J.). HPAEC were cultured according to the manufacturer's protocol and utilized at early (3-6) passages.
The barrier properties of endothelial cells monolayers were characterized using a highly sensitive electrical cell-substrate impedance sensing (ECIS) instrument to measure transendothelial electrical resistance (TER) as described (Birukova et al., 2004a. Microvasc Res 67(1):64-77; Kolosova et al., 2005, Circ Res 97(2):115-124). The TER data was normalized to the initial voltage.

LPS-induced ALI in mice [1] = test: BAL cell count; format: in vivo
Experimental: (§2) Mice were anesthetized with ketamine (150 mg/kg) and acetylpromazine (15 mg/kg) intraperitoneally (i.p.) before the exposure of the trachea via neck incision and intubation with 20-guage catheter and the right internal jugular vein was exposed via right chest incision for PBS or b-NAD installation. The mice were randomly divided into groups. LPS or sterile saline was instilled intratracheally (i.t.) via a 20-gauge catheter. Simultaneously, mice received either b-NAD (5.4 mg/kg, equivalent to final calculated plasma concentration […] or PBS in the control group intravenously (i.v.) through the internal jugular vein (IJ). The animals were allowed to recover for 18 hr. EBD was given through the IJ 2 hr prior to termination of the experiment. At termination, bronchoalveolar lavage (BAL) was collected. BAL was 1ml of 10% HBSS through the endotracheal catheter immediately on sacrifice with aspiration. BAL was immediately centrifuged and processed. After the BAL, ethylenediaminetetraacetic acid (EDTA) was used to flush the lungs of blood via the right heart ventricle and the lungs were then harvested. BAL and lungs were collected and stored at −70° C. for evaluation of lung injury. […]

LPS-induced ALI in mice [2] = test: BAL total protein in LPS-induced lung injury; format: in vivo; conditions: β-NAD (i.v.) simultaneously with LPS (i.t.), 18 hr
Experimental: Female C57BL/6J mice (8-10 weeks old) weighing 20-25 g were purchased from Charles River Laboratory (Wilmington, Mass.). Animals were housed in plastic cages and had access to food and water. The animals were kept at room temperature and exposed to continuous cycles of 12 hr light and darkness.
as §2, with “LPS or sterile saline was instilled intratracheally (i.t.) via a 20-gauge catheter.” left out, “harvested.” for “harvested. BAL and lungs were collected and stored at −70° C. for evaluation of lung injury.”

LPS-induced ALI in mice [3] = test: Evans Blue Dye-albumin (EBD) lung permeability; format: in vivo
Experimental: Mice were anesthetized with ketamine (150 mg/kg) and acetylpromazine (15 mg/kg) intraperitoneally (i.p.) before the exposure of the trachea via neck incision and intubation with 20-guage catheter and the right internal jugular vein was exposed via right chest incision for PBS or b-NAD installation. The mice were randomly divided into groups. LPS or sterile saline was instilled intratracheally (i.t.) via a 20-gauge catheter. Simultaneously, mice received either b-NAD (5.4 mg/kg, equivalent to final calculated plasma concentration […] or PBS in the control group intravenously (i.v.) through the internal jugular vein (IJ). The animals were allowed to recover for 18 hr. EBD was given through the IJ 2 hr prior to termination of the experiment. At termination, bronchoalveolar lavage (BAL) was collected. BAL was 1ml of 10% HBSS through the endotracheal catheter immediately on sacrifice with aspiration. BAL was immediately centrifuged and processed. After the BAL, ethylenediaminetetraacetic acid (EDTA) was used to flush the lungs of blood via the right heart ventricle and the lungs were then harvested. BAL and lungs were collected and stored at −70° C. for evaluation of lung injury.
Measurement of EBD concentration in the lungs was performed by injection of EBD (20 mg/kg) into the right internal jugular vein 2 hr before the termination of the experiment to assess the vascular leak. Lungs free of blood were weighed and snap frozen in liquid nitrogen. The left lung was weighed and homogenized, then incubated with two volumes of formamide (18 hr, 60° C.) and centrifuged (5000 g, 30 min, 20° C.). The extravasated EBD concentration (mg/g, lung) in the lung homogenate was calculated against a standard curve. In a separate experiment the EBD was injected into the right internal jugular vein as described above at 2 hrs prior to termination of the experiment and the left lung gross anatomy view was photographed with a Leica NCL150 Camera.

LPS-induced ALI in mice [4] = test: Lung histology (H&E); format: in vivo
Experimental: Lungs perfused free of blood after perfusion with EDTA, were immersed in 5% buffered paraformaldehyde for 18 hr at 4° C. prior to histological evaluation by hematoxylin and eosin staining (H&E staining). The right lung lobes were used for consistency. H&E staining was done by deparafinizing and hydrating the slides to water. The slides were stained in Harris Hematoxylin for 15 min and Eosin for 30 sec. The slides were dehydrated, cleared and mounted with cytoseal.

[5] = test system: LPS-induced mortality in mice; test: LPS-induced mortality / survival; format: in vivo
Experimental: Mice were injected with β-NAD (100 mg/kg, i.p) or vehicle (saline, i.p) 10 min after LPS (20 mg/kg, i.p) challenge. As a treatment strategy, β-NAD was given twice a day (i.p) for 4 days. […]

[6] = test system: myosin light chain (MLC) phosphorylation; test: MLC phosphorylation immunoblot in LPS-treated HPAEC; format: cell-based, human; conditions: LPS/β-NAD mixture, 4 hrs
Experimental: as §1

[7] = test system: VE-cadherin-positive cell-cell junctions in HPAEC; test: VE-cadherin immunofluorescence of HPAEC monolayers; format: cell-based, human; conditions: 50 μM b-NAD, 30 minutes
Experimental: Immunostaining was performed as described (Kolosova et al., 2005, Circ Res 97(2):115-124). The DNA-binding, fluorescent dye 7-amino-actinomycin D (7AAD) was used to stain cell nuclei. The percentage of total cell surface area occupied by VE-cadherin-positive cell-cell junctions was quantitatively determined using Zeiss Microscope quantification Software.

NC(=O)C1=CN([C@@H]2O[C@H](COP(=O)(O)OP(=O)(O)OC[C@H]3O[C@@H](n4cnc5c(N)ncnc54)[C@H](O)[C@@H]3O)[C@@H](O)[C@H]2O)C=CC1 [β-NAD, beta-nicotinamide adenine dinucleotide]
Rac1 activation (Rac1): dramatic β-NAD-dependent activation of Rac1 at early time points | thrombin-induced endothelial cell permeability (TER) (HPAEC monolayers; 100 nM thrombin in mixture with 50 mM b-NAD): significantly attenuated the thrombin-induced endothelial cell permeability | decrease in TER from base line (HPAEC monolayers; LPS (100 ng/ml) with β-NAD added): ~30% | PLY-induced loss of monolayer integrity (TER) (HPAEC monolayers; PLY in a mixture with 50 mM β-NAD): failed to produce such drastic effect | TER of HPAEC monolayers (endothelial barrier function) (HPAEC monolayers; b-NAD alone, quiescent HPAEC, 10-100 mM as printed): positive effect; also recorded: significant initial increase in TER | β-NAD effect on TER after cytochalasin B (HPAEC monolayers; cytochalasin B pretreatment 30 min, then 50 μM β-NAD): did not increase the TER | β-NAD effect on TER after nocodazole (HPAEC monolayers; nocodazole pretreatment 30 min, then 50 μM β-NAD): restored endothelial cell barrier integrity | total WBCs in BAL fluid (LPS-induced ALI in mice [1]; LPS treated mice, BAL at 24 hr): reduced total WBCs in BAL fluid | neutrophil count of BAL fluid (LPS-induced ALI in mice [1]; LPS/b-NAD compared to LPS only treated mice): decrease in neutrophil count | LPS-induced BAL protein accumulation (LPS-induced ALI in mice [2]): significantly attenuated | EBD leakage into lung parenchyma on gross examination (LPS-induced ALI in mice [3]; LPS 0.9 mg/kg i.t. and b-NAD 5.46 mg/kg, 24 hr): minimal leakage | EBD-albumin in lung (average) (LPS-induced ALI in mice [3]; b-NAD/LPS treated mice): 10.41 µg/g | EBD-albumin in lung (average) (LPS-induced ALI in mice [3]; β-NAD/saline control (no LPS)): 6.54 µg/g | interstitial edema and infiltration of neutrophils (histology) (LPS-induced ALI in mice [4]; LPS/β-NAD vs LPS treated lung, 18 hr): less prominent | lung histology, β-NAD alone (LPS-induced ALI in mice [4]; β-NAD alone, no LPS): no effect | mortality, LPS vs. LPS/β-NAD ([5]; 15 day study): significantly reduced morality | survival after LPS challenge ([5]; LPS 20 mg/kg i.p., β-NAD 100 mg/kg i.p. twice a day, 4 days): recovered and lived longer | survival, β-NAD alone ([5]; β-NAD alone, no LPS): no effect | LPS-stimulated MLC phosphorylation [6]: significantly inhibited | VE-cadherin recruitment to cell-cell junctions [7]: Appreciably more VE-cadherin was recruited to the area of cell-cell junctions | percentage of total cell-surface area occupied by VE-cadherin-positive cell-cell junctions (mean) ([7]; 20 cells per group, control 17.42%): 61.03%
